Test results reported in US20240425473A2 (priority 2021, published 2024).
Where two headings read alike, the source gives them in different places.

Key:
IFN-β promoter activity = type: cell-based, human; conditions: for effect on IFN induction, compared with AE-1-10: 293T cells with SeV infection; for IFN induction: Sendai virus
CTPS1 [1] = target: T1, CTPS1 (Homo sapiens, UniProt P17812); type: binding; design: Flag; expressed in transfected cells; host or cells: 293T cells expressing Flag-CTPS1; conditions: 293T cells expressing Flag-CTPS1
T1 sequence (P17812 1-591): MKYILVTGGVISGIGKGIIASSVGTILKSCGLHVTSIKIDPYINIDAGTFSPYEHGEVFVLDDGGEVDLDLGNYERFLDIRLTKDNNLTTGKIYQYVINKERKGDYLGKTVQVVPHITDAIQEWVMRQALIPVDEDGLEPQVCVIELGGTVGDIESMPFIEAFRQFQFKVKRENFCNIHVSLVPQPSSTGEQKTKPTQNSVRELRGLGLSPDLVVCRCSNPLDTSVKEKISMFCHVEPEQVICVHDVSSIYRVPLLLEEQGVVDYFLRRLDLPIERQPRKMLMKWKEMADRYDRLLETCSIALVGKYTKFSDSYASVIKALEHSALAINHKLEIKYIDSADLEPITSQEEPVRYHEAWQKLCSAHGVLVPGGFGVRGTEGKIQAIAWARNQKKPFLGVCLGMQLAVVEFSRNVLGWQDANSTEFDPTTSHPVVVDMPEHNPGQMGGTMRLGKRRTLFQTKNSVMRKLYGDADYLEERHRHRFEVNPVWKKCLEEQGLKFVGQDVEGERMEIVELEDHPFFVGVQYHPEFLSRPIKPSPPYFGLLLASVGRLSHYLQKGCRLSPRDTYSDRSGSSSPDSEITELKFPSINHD

CTPS1 [2] = target: T1, CTPS1; type: biochemical; design: made in house; conditions: with respect to UTP, 2 mM ATP, 2 mM L-glutamine, 0.1 mM GTP, Michaelis-Menten
CTP synthesis = type: cell-based, human
NF-κB promoter activity = type: cell-based, human; conditions: 293T cells
IFNB1 expression = type: cell-based, human; conditions: 293T cells pre-treated 2 h, Sendai virus infection 9 h
SARS-CoV-2 [3] = type: cell-based
SARS-CoV-2 [4] = type: cell-based; remark: listed apart in the source
IRF3 deamidation = IRF3 deamidation by two-dimensional gel electrophoresis and immunoblotting; type: cell-based, human; conditions: Caco-2 cells expressing ORF8 or A549 cells expressing Nsp8; 5 μM
[5] = test system: antiviral genes IFNB1, ISG56, CCL5 and Mx1; type: cell-based, human
SARS-CoV-2 [6] = test system: SARS-CoV-2; design: species or system mice; conditions: mouse, in vivo, ip, 35 mg/kg
CTPS1 [7] = target: T1, CTPS1; experiment: Click-based cross-linking, affinity purification and mass spectrometry to identify cellular targets; type: binding; design: endogenous in cells; conditions: ranked lower than several other proteins; data not shown

COc1ccc(NC(=O)c2cccc(NC(=O)CCl)c2)cc1 [C4]
effect on IFN induction, compared with AE-1-10 (IFN-β promoter activity): improved effect to increase IFN induction

[N-]=[N+]=CC(=O)CC[C@H](N)C(=O)O [DON, 6-diazo-5-oxo-L-norleucine, reference compound]
Sendai virus-induced IFN-β gene expression (IFN-β promoter activity; CTPS1 depleted and control 293T cells): elevated

C#CCOc1cccc(NC(=O)c2cccc([N+](=O)[O-])c2)c1 [BE-2-10]
reaction (labeling) with CTPS1 (CTPS1 [1]): reacted with CTPS1 in a dose-dependent manner

ORF8: SARS-CoV-2 polypeptide transiently expressed in the 293T cells from which CTPS1 was purified
Kcat (CTPS1 [2]): 0.0212 ± 0.0137 s⁻¹
Km (CTPS1 [2]): 55.2 ± 50.3 mM

COc1cccc(NC(=O)c2cccc(NC(=O)CCl)c2)c1 [AE-1-10]
[15N]CTP and [15N]CDP (CTP synthesis): reduced [^15N]CTP and, much more so [^15N]CDP in a dose-dependent manner
intracellular concentration of [15N]CTP and [15N]CDP (CTP synthesis): reduced the intracellular concentration of [^15N]CTP and [^15N]CDP
NF-κB activation (NF-κB promoter activity): no effect
IFNB1 expression (IFNB1 expression): increased IFNB1 expression in a dose-dependent manner
viral RNA (SARS-CoV-2 [3]): reduced viral RNA
viral yield (SARS-CoV-2 [4]): reduced viral RNA and yield
inhibition of IRF3 deamidation (IRF3 deamidation): best efficacy to inhibit IRF3 deamidation
antiviral gene expression [5]: elevated antiviral gene expression
expression of antiviral genes (IFNB1, ISG56, CCL5, Mx1) [5]: elevated
IFN induction (IFN-β promoter activity; CTPS1-depleted 293T cells): failed to do so
IFN induction (IFN-β promoter activity; control 293T cells): elevated IFN induction

O=C(CCl)Nc1csc(C(=O)Nc2ccccc2)c1 [C8]
effect on IFN induction, compared with AE-1-10 (IFN-β promoter activity): improved effect to increase IFN induction

CCc1ccccc1NC(=O)c1cccc(NC(=O)CCl)c1 [B8]
reduction of viral RNA abundance relative to C9 (SARS-CoV-2 [3]): significant improvement compared to C9
effect on viral titer (SARS-CoV-2 [4]): better effect than C9

COc1ccccc1NC(=O)c1cc(NC(=O)CCl)cs1 [B2]
reduction of viral RNA abundance compared to the vehicle (DMSO) (SARS-CoV-2 [3]): ~5 order of magnitude
effect on viral titer (SARS-CoV-2 [4]): reduced viral titer to the limit of detection

COc1cccc(NC(=O)c2cc(NC(=O)CCl)cs2)c1 [B7]
reduction of viral RNA abundance compared to the vehicle (DMSO) (SARS-CoV-2 [3]): ~5 order of magnitude
effect on viral titer (SARS-CoV-2 [4]): reduced viral titer to the limit of detection

O=C(CCl)Nc1cccc(C(=O)NC2CCCCC2)c1 [C1]
effect on IFN induction, compared with AE-1-10 (IFN-β promoter activity): no effect

ORF7b: SARS-CoV-2 polypeptide transiently expressed in the 293T cells from which CTPS1 was purified
Kcat (CTPS1 [2]): 0.0147 ± 0.006 s⁻¹
Km (CTPS1 [2]): 30.5 ± 21.5 mM

O=C(CCl)Nc1cccc(C(=O)NC2CCCC2)c1 [B4]
reduction of viral RNA abundance relative to C9 (SARS-CoV-2 [3]): significant improvement compared to C9

CCCCCNC(=O)c1cccc(NC(=O)CCl)c1 [C9]
reduction of viral RNA abundance compared to the vehicle (DMSO) (SARS-CoV-2 [3]): ~2 order of magnitude
protection against SARS-CoV-2 infection (SARS-CoV-2 [6]): protect against infection
antiviral activity in SARS-CoV-2 infection, compared to AE-1-10 (SARS-CoV-2 [4]): more robust antiviral activity
reduction of SARS-CoV-2 titer (SARS-CoV-2 [4]): ~3 order of magnitude
effect on IFN induction, compared with AE-1-10 (IFN-β promoter activity): improved effect to increase IFN induction

Cc1ccccc1NC(=O)c1cccc(NC(=O)CCl)c1 [B5]
reduction of viral RNA abundance relative to C9 (SARS-CoV-2 [3]): significant improvement compared to C9
effect on viral titer (SARS-CoV-2 [4]): better effect than C9

CCCCCNC(=O)c1ccc(NC(=O)CCl)s1 [B1]
reduction of viral RNA abundance compared to the vehicle (DMSO) (SARS-CoV-2 [3]): ~5 order of magnitude
effect on viral titer (SARS-CoV-2 [4]): reduced viral titer to the limit of detection

COc1cccc(N(C)C(=O)c2cccc(NC(=O)CCl)c2)c1 [C2]
effect on IFN induction, compared with AE-1-10 (IFN-β promoter activity): no effect

COc1ccccc1NC(=O)c1cccc(NC(=O)CCl)c1 [C5]
antiviral activity in SARS-CoV-2 infection, compared to AE-1-10 (SARS-CoV-2 [4]): more robust antiviral activity
effect on IFN induction, compared with AE-1-10 (IFN-β promoter activity): improved effect to increase IFN induction

C#CCOc1cccc(Nc2ncnc3ccc(NC(=O)CCl)cc23)c1 [Q6ca]
cellular target identification (CTPS1 [7]): identification of CTPS1 as a cellular target

O=C(CCl)Nc1cccc(C(=O)Nc2ncc[nH]2)c1 [C6]
effect on IFN induction, compared with AE-1-10 (IFN-β promoter activity): modest effect

O=C(Nc1ccccc1)c1ccc([N+](=O)[O-])s1 [C7]
effect on IFN induction, compared with AE-1-10 (IFN-β promoter activity): modest effect
